Data as given in the supplement of paper PMC10307832.

Tests used:
Experiment in all cases: relative viability (nuclei count vs DMSO), 5 days (fraction); higher = more cells survive
[1] = compound: Cc1ccc(NC(=O)c2ccc(CN3CCN(C)CC3)cc2)cc1Nc1nc(-c2cccnc2)cs1 [Masitinib] + Cc1nc(Nc2ncc(C(=O)Nc3c(C)cccc3Cl)s2)cc(N2CCN(CCO)CC2)n1 [Dasatinib] (partner 0.075 µM)
Procedure, shortened: (§1)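 Five library-drug doses in √10 steps were combined with a fixed anchor-drug dose, or a single drug was given alone, by pin tool to lung cancer cell lines in 1536-well plates the day after seeding. Nuclei were stained and counted after 5 days. Relative viability is the nuclei count in treated wells over that in vehicle wells, taken as the median of duplicate plates.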

[2] = compound: CC1=CC(=CC=C1)NC2=NC(=CS2)C3=CC=NC=C3 + C[C@@H](Oc1cc(-c2cnn(C3CCNCC3)c2)cnc1N)c1c(Cl)ccc(F)c1Cl [Crizotinib] (partner 1 µM)
Procedure, shortened: as §1

[3] = compound: Cc1ccc(NC(=O)c2ccc(CN3CCN(C)CC3)cc2)cc1Nc1nc(-c2cccnc2)cs1 [Masitinib] + CC1(C)CCC(c2ccc(Cl)cc2)=C(CN2CCN(c3ccc(C(=O)NS(=O)(=O)c4ccc(N[C@H](CCN5CCOCC5)CSc5ccccc5)c(S(=O)(=O)C(F)(F)F)c4)cc3)CC2)C1 [Navitoclax] (partner 0.5 µM)
Procedure, shortened: as §1

[4] = compound: Cc1ccc(NC(=O)c2ccc(CN3CCN(C)CC3)cc2)cc1Nc1nc(-c2cccnc2)cs1 [Masitinib] + CCNC(=O)c1noc(-c2cc(C(C)C)c(O)cc2O)c1-c1ccc(CN2CCOCC2)cc1 [Luminespib] (partner 0.01 µM)
Procedure, shortened: as §1

| Cell Line | relative viability ([1]; first compound 0.01 µM) | relative viability ([1]; first compound 0.03162 µM) | relative viability ([1]; first compound 0.1 µM) | relative viability ([1]; first compound 0.3162 µM) | relative viability ([1]; first compound 1 µM) | relative viability ([2]; first compound 0.08 µM) | relative viability ([2]; first compound 0.253 µM) | relative viability ([2]; first compound 0.8 µM) | relative viability ([2]; first compound 2.53 µM) | relative viability ([2]; first compound 8 µM) | relative viability ([3]; first compound 0.01 µM) | relative viability ([3]; first compound 0.03162 µM) | relative viability ([3]; first compound 0.1 µM) | relative viability ([3]; first compound 0.3162 µM) | relative viability ([3]; first compound 1 µM) | relative viability ([4]; first compound 0.01 µM) | relative viability ([4]; first compound 0.03162 µM) | relative viability ([4]; first compound 0.1 µM) | relative viability ([4]; first compound 0.3162 µM) | relative viability ([4]; first compound 1 µM) |
| --- | --- | --- | --- | --- | --- | --- | --- | --- | --- | --- | --- | --- | --- | --- | --- | --- | --- | --- | --- | --- |
| HCC-78 | 0.468 | 0.312 | 0.392 | 0.468 | 0.366 | 0.324 | 0.312 | 0.311 | 0.333 | 0.346 | 0.722 | 0.822 | 0.839 | 0.77 | 0.763 | – | – | – | – | – |
| HCC-366 | – | 0.654 | – | 0.619 | 0.609 | 0.346 | 0.387 | 0.351 | 0.451 | 0.638 | 1.04 | 1.03 | 1.2 | 1.09 | 1 | – | – | – | – | – |
| HCC-827 | 0.269 | 0.286 | 0.275 | 0.314 | 0.293 | 0.945 | 0.91 | 0.854 | 0.89 | 0.856 | 0.924 | 0.996 | 1.01 | 0.942 | 1.01 | 0.597 | 0.906 | 0.816 | 0.558 | 0.583 |
| HOP-62 | 0.604 | 0.632 | 0.785 | 0.634 | 0.606 | 0.935 | 0.788 | 0.944 | 0.503 | 0.93 | 0.93 | 1.02 | 0.76 | 1.11 | 1.05 | 0.75 | 0.839 | 0.949 | 0.968 | 0.855 |
| IA-LM | – | – | – | – | – | 0.519 | 0.581 | 0.86 | 0.563 | 0.466 | 0.733 | 0.699 | 1.02 | 0.689 | 1.01 | – | – | – | – | – |
| LC-2-ad | 0.47 | 0.587 | 0.639 | 0.523 | 0.554 | 0.45 | 0.419 | 0.394 | 0.397 | 0.396 | 0.486 | 0.412 | 0.667 | 0.485 | 0.408 | 0.918 | 1.18 | 1.04 | 0.916 | 0.929 |
| LCLC-97TM1 | – | 0.961 | 0.903 | 0.943 | 0.84 | – | – | 0.744 | 0.366 | 0.42 | 0.35 | 0.42 | 0.0511 | 0.639 | 0.355 | – | 0.777 | 0.857 | 0.946 | 0.857 |
| LCLC-103H | 0.41 | 0.467 | 0.462 | 0.437 | 0.445 | 0.918 | 0.924 | 0.902 | 1.02 | 0.888 | – | – | – | – | – | 0.727 | 0.932 | 1.04 | 0.748 | 1.03 |
| LK-2 | 0.336 | 0.243 | 0.289 | 0.306 | 0.263 | 0.261 | 0.197 | 0.229 | – | 0.246 | 1.01 | 0.855 | 1.06 | 1.21 | 0.885 | 0.183 | 0.183 | 0.132 | 0.151 | 0.175 |
| LOU-NH91 | 0.557 | 0.511 | 0.54 | 0.442 | 0.546 | 0.706 | 0.759 | 0.717 | 0.728 | 0.693 | 0.651 | 0.653 | 0.791 | 0.589 | 0.673 | 0.307 | 0.32 | 0.337 | 0.272 | 0.372 |
| NCI-H358 | 0.155 | 0.158 | 0.166 | 0.161 | 0.133 | 0.509 | 0.576 | 0.562 | 0.542 | 0.512 | – | – | – | – | – | 0.21 | 0.299 | 0.37 | 0.342 | 0.186 |
| NCI-H522 | 0.818 | – | 0.823 | 0.887 | 0.879 | – | – | – | – | – | – | – | – | – | – | 1.18 | 1.16 | 1.05 | 1.13 | 0.94 |
| NCI-H650 | 0.516 | 0.429 | 0.482 | 0.313 | 0.415 | 0.683 | 0.724 | 0.615 | – | 0.914 | – | – | – | – | – | 0.7 | 0.908 | 0.798 | 0.853 | 0.766 |
| NCI-H661 | 0.883 | 1.03 | 1.04 | 0.795 | 0.658 | 0.974 | 1 | 0.925 | 0.935 | 0.908 | – | – | – | – | – | 0.831 | 0.916 | 0.951 | 0.897 | 0.903 |
| NCI-H1299 | – | – | – | – | – | 0.89 | 0.891 | 0.924 | 0.931 | 0.804 | 1.08 | 1.03 | 1.04 | 1.04 | 1.03 | – | – | – | – | – |
| NCI-H1395 | 0.415 | 0.404 | 0.404 | 0.395 | 0.426 | – | – | – | – | – | 1.25 | 1.17 | 1.11 | 1.1 | 1.05 | 0.626 | 0.682 | 0.864 | 0.506 | 0.611 |
| NCI-H1563 | 0.399 | 0.481 | 0.49 | 0.481 | 0.415 | 0.958 | 0.916 | 0.887 | 0.909 | 0.86 | – | – | – | – | – | 0.509 | 0.537 | 0.524 | 0.532 | 0.505 |
| NCI-H1623 | 0.488 | 0.446 | 0.551 | 0.453 | 0.43 | – | – | – | – | – | – | – | – | – | – | 0.493 | 0.451 | 0.814 | 0.427 | 0.506 |
| NCI-H1703 | – | – | – | – | – | 0.73 | 1.01 | 0.683 | 0.878 | 0.799 | 0.748 | 0.898 | 0.464 | 0.29 | 0.243 | – | – | – | – | – |
| NCI-H1793 | 0.415 | 0.398 | 0.396 | 0.356 | 0.462 | – | – | – | – | – | 0.456 | 0.446 | 0.401 | 0.41 | 0.404 | 0.165 | 0.166 | 0.182 | 0.162 | 0.567 |
| NCI-H2342 | 0.326 | 0.334 | 0.3 | 0.301 | 0.34 | – | – | – | – | – | – | – | – | – | – | 0.775 | 0.79 | 0.707 | 0.727 | 0.791 |
| SW 900 | 0.613 | 0.473 | 0.706 | 0.499 | 0.477 | – | – | – | – | – | – | – | – | – | – | 0.165 | 0.156 | 0.163 | 0.158 | 0.185 |
